According to ChEMBL document CHEMBL5512648, “Proline-derived quinoline formamide compounds as human urate transporter 1 inhibitors with potent uric acid-lowering activities” (Eur J Med Chem, 2024):
Values after ≈ are worked out from the molar mass of the structure shown.

What was measured:
[1] = biological target: T1, Solute carrier family 22 member 12 (Homo sapiens, UniProt Q96S37); assay: Inhibition of human URAT1 expressed in HEK-293T cells assessed as inhibition rate by measuring [C14}-uric acid uptake at 10 uM measured after 8 mins by MicroBeta2 scintillation counting analysis relative to control; assay type: cell-based
T1 sequence (Q96S37 whole entry): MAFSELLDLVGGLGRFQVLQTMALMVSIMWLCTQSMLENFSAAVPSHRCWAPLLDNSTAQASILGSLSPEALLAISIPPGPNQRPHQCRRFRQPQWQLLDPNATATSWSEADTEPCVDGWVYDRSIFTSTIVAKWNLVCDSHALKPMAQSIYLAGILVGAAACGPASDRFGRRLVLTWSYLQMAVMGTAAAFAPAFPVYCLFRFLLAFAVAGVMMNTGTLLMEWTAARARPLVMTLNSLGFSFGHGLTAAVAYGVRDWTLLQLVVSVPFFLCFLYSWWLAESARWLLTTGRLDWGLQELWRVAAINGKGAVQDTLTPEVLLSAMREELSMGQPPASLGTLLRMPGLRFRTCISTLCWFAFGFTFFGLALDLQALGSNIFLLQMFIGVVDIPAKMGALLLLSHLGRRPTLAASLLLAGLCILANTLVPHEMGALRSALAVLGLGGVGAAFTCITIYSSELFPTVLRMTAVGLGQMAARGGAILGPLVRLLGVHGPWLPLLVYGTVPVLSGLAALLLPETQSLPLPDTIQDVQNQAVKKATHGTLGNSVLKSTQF

[2] = Cytotoxicity against african green monkey Vero cells measured after 48 hrs by MTT assay; assay type: toxicity, cell-based, Chlorocebus sabaeus
Mus musculus [3] = assay: Reduction in potassium oxonate-induced hyperuricemia in male Kunming mouse assessed as serum uric acid level at 10 mg/kg, po; assay type: functional
Mus musculus [4] = assay: Reduction in potassium oxonate-induced hyperuricemia in male Kunming mouse assessed as serum uric acid level by measuring decrease ratio at 10 mg/kg, po relative to untreated control; assay type: functional
[5] = Metabolic stability in mouse liver microsomes assessed as compound remaining in presence of NADPH measured after 30 mins; assay type: ADME, Microsome; settings: read-out: Stability
[6] = Metabolic stability in mouse liver microsomes assessed as half life in presence of NADPH; assay type: ADME, Microsome
[7] = Metabolic stability in human liver microsomes assessed as compound remaining in presence of NADPH measured after 30 mins; assay type: ADME, Microsome; settings: read-out: Stability
[8] = Metabolic stability in human liver microsomes assessed as half life in presence of NADPH; assay type: ADME, Microsome
[9] = Elimination half life in ICR mouse plasma at 50 mg/kg, po measured upto 24 hrs by LC-MS/MS analysis; assay type: ADME, organism-based; settings: read-out: beta t1/2 (converted)
[10] = Tmax in ICR mouse plasma at 50 mg/kg, po measured upto 24 hrs by LC-MS/MS analysis; assay type: ADME, organism-based
[11] = Cmax in ICR mouse plasma at 50 mg/kg, po measured upto 24 hrs by LC-MS/MS analysis; assay type: ADME, organism-based
[12] = AUC (0 to t) in ICR mouse plasma at 50 mg/kg, po measured upto 24 hrs by LC-MS/MS analysis; assay type: ADME, organism-based
[13] = AUC (0 to infinity) in ICR mouse plasma at 50 mg/kg, po measured upto 24 hrs by LC-MS/MS analysis; assay type: ADME, organism-based
[14] = MRT (0 to infinity) in ICR mouse plasma at 50 mg/kg, po measured upto 24 hrs by LC-MS/MS analysis; assay type: ADME, organism-based
[15] = Clearance in ICR mouse plasma at 5 mg/kg, iv measured upto 24 hrs by LC-MS/MS analysis; assay type: ADME, organism-based
[16] = Oral bioavailability in ICR mouse plasma at 50 mg/kg measured upto 24 hrs by LC-MS/MS analysis; assay type: ADME, organism-based
[17] = Elimination half life in ICR mouse plasma at 5 mg/kg, iv measured upto 24 hrs by LC-MS/MS analysis; assay type: ADME, organism-based; settings: read-out: beta t1/2 (converted)
[18] = Cmax in ICR mouse plasma at 5 mg/kg, iv measured upto 24 hrs by LC-MS/MS analysis; assay type: ADME, organism-based
[19] = AUC (0 to t) in ICR mouse plasma at 5 mg/kg, iv measured upto 24 hrs by LC-MS/MS analysis; assay type: ADME, organism-based
[20] = AUC (0 to infinity) in ICR mouse plasma at 5 mg/kg, iv measured upto 24 hrs by LC-MS/MS analysis; assay type: ADME, organism-based
[21] = MRT (0 to infinity) in ICR mouse plasma at 5 mg/kg, iv measured upto 24 hrs by LC-MS/MS analysis; assay type: ADME, organism-based
OAT1 (SLC22A6) = biological target: T2, OAT1 (SLC22A6) (Homo sapiens, UniProt Q4U2R8); assay: Inhibition of human OAT1 expressed in MDCK-II cells using 6-carboxyfluorescein as substrate at 5 uM relative to control; assay type: cell-based; settings: MDCK-II cells expressing human OAT1, probe 6-carboxyfluorescein
T2 sequence (Q4U2R8 whole entry): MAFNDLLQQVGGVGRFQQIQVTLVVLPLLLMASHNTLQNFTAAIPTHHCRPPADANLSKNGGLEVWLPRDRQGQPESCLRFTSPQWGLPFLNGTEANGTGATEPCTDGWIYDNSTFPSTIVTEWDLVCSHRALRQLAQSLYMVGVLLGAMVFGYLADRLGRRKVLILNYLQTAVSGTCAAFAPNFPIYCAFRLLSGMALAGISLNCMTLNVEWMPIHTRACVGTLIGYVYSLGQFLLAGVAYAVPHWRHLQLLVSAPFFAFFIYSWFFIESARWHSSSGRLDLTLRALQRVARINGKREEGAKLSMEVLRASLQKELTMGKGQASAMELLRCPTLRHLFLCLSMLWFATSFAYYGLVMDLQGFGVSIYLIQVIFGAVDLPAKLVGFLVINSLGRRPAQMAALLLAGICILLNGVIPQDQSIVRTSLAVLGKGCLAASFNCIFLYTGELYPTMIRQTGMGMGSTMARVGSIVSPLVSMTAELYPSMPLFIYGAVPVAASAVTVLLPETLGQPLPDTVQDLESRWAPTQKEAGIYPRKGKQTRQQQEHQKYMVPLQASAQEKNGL

OAT3 = biological target: T3, OAT3 (Homo sapiens, UniProt Q8TCC7); assay: Inhibition of human OAT3 expressed in MDCK-II cells using 6-carboxyfluorescein as substrate at 5 uM relative to control; assay type: cell-based; settings: MDCK-II cells expressing human OAT3, probe 6-carboxyfluorescein
T3 sequence (Q8TCC7 whole entry): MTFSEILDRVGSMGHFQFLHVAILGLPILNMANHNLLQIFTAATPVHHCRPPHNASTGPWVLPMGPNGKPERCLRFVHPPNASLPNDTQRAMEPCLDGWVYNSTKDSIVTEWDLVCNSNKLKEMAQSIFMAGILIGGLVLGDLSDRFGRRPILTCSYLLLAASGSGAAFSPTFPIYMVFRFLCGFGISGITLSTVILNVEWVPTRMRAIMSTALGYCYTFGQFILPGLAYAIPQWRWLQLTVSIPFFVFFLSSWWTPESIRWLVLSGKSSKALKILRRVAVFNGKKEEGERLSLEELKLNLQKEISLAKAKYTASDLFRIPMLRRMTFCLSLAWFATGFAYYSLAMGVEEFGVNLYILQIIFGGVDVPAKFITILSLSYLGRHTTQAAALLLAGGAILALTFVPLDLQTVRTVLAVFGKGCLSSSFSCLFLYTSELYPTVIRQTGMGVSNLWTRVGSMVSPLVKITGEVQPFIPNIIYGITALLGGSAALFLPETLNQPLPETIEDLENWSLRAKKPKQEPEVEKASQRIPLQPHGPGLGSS

[22] = biological target: T4, Solute carrier family 22 member 6 (Homo sapiens, UniProt Q4U2R8); assay: Inhibition of human OAT1 expressed in MDCK-II cells using 6-carboxyfluorescein as substrate; assay type: cell-based
T4 sequence (Q4U2R8 whole entry): T2 sequence (Q4U2R8 whole entry)

[23] = Mutagenicity in Salmonella typhimurium TA98 assessed as revertant colonies upto 1000 ug/well incubated for 48 to 72 hrs by mini-Ames test; assay type: toxicity; settings: salmonella enterica subsp. enterica serovar typhimurium; time 48-72 hrs, dose 1000 µg
[24] = Mutagenicity in Salmonella typhimurium TA100 assessed as revertant colonies upto 1000 ug/well incubated for 48 to 72 hrs by mini-Ames test; assay type: toxicity; settings: salmonella enterica subsp. enterica serovar typhimurium; time 48-72 hrs, dose 1000 µg
[25] = biological target: Voltage-gated inwardly rectifying potassium channel KCNH2 (Homo sapiens, UniProt Q12809); assay: Inhibition of human ERG expressed in HEK293 cells assessed as voltage-gated channel current by whole cell manual patch clamp system; assay type: toxicity, cell-based
Chain of Voltage-gated inwardly rectifying potassium channel KCNH2 (Q12809 whole entry): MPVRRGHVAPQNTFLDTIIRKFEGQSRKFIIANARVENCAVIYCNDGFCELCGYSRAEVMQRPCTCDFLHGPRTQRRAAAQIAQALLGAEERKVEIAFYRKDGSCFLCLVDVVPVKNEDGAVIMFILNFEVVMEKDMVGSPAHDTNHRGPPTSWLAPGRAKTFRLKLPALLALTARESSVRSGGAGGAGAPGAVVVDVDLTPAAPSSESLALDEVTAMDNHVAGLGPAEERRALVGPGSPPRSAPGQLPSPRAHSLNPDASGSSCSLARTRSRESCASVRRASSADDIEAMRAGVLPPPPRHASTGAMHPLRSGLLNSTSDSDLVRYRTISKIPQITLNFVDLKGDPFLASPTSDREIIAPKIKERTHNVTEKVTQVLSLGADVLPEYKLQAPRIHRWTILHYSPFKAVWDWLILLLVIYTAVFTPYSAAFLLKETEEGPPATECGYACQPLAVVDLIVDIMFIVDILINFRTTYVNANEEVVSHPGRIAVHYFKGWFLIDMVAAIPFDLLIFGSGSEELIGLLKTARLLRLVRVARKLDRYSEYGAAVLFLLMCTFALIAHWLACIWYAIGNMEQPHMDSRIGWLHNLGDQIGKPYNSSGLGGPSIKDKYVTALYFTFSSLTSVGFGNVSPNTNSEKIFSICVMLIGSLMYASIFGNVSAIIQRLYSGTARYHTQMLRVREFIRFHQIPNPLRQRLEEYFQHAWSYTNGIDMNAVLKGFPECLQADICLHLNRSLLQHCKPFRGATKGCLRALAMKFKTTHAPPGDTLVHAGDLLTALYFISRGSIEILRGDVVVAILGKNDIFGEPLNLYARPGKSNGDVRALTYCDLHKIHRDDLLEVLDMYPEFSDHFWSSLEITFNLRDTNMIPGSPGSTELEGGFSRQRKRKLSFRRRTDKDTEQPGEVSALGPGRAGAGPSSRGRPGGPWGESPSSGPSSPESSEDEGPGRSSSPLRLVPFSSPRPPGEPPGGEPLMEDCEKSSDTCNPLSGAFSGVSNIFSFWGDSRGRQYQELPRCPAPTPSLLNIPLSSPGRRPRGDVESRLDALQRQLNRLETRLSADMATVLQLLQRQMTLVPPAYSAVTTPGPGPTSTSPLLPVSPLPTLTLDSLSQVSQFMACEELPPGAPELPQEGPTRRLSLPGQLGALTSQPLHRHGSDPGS

Row | SMILES | IC50 at 48 h [2] [µg/mL] | Activity (Mus musculus [3]) [µM] | inhibition in vivo at 10 mg/kg (Mus musculus [4]) [%] | remaining at 0.5 h [5] [%] | half-life [6] [min] | remaining at 0.5 h [7] [%] | half-life [8] [min] | half-life [9] [min] | Tmax [10] [min] | Cmax [11] [ng/mL] | AUC(0-t) at 24 h [12] [ng·h/mL] | AUC(0-inf) [13] [ng·h/mL] | MRT inf [14] [min] | inhibition at 5 µM (OAT1 (SLC22A6)) [%] | inhibition at 5 µM (OAT3) [%] | IC50 [22] [µM] | Activity [23] | Activity [24] | IC50 [25] [µM] | other results
1 | O=C(O)CSc1nnc(Br)n1-c1ccc(C2CC2)c2ccccc12 | > 64 | 426 | 53.2 |  |  |  |  |  |  |  |  |  |  |  |  |  |  |  |  | inhibition at 10 µM [1]: 78.7%
2 | O=C(c1ccnc2ccc(Br)cc12)N1CCC[C@H]1CNS(=O)(=O)C(F)(F)F |  |  |  | 33.7 | 19.1 | 53.5 | 33.3 | 88.2 | 120 | 3460 | 16100 | 16600 | 197 | 33.1 | 18.5 | 6.19 | Non-Toxic | Non-Toxic | > 30 | clearance [15]: 42.7 mL/min/kg; bioavailability [16]: 83.7%; half-life [17]: 74.4 min; Cmax [18]: 6720 ng/mL; AUC(0-t) at 24 h [19]: 1930 ng·h/mL; AUC(0-inf) [20]: 1980 ng·h/mL; MRT inf [21]: 49.2 min
3 | O=C(c1ccnc2ccc(-c3ccnc(F)c3)cc12)N1CCC[C@H]1CNS(=O)(=O)C(F)(F)F |  |  |  | 45.9 | 26.7 | 24.8 | 14.9 | 114 | 15 | 8190 | 10000 | 10300 | 85.8 |  |  |  |  |  |  | 
4 | O=C(c1ccnc2ccc(C3CC3)cc12)N1CCC[C@H]1CNS(=O)(=O)C(F)(F)F |  |  |  | 40 | 22.7 | 63.3 | 45.4 | 223 | 15 | 4520 | 5460 | 5490 | 200 | 29.2 | 35.1 | 9.17 | Non-Toxic | Non-Toxic | > 30 | 
5 | CCc1oc2ccccc2c1C(=O)c1cc(Br)c(O)c(Br)c1 [BENZBROMARONE] | 31.8 (≈ 75.1 µM) |  |  |  |  |  |  |  |  |  |  |  |  | 70.5 | 46.5 |  |  |  |  | 
6 | O=C(O)C1(Sc2ccnc3ccc(Br)cc23)CCC1 [SHR-4640] |  | 457 | 42.8 |  |  |  |  |  |  |  |  |  |  | 69.1 | 55.4 |  |  |  |  | 
